Measurements from patent US12031170B2, “System for improved production titers in fermentations” (DANMARKS TEKNISKE UNIVERSITET, priority 2015, dated 2024).

Legend:
Type in all cases: cell-based
[1] = system: E. coli control strain e3.18CON; assay: Toxicity of salicylic acid to non-addicted control strain, growth in microtiter plate; conditions: 2xYT, 5 mM salicylic acid, 37 deg. C.
Experimental: Recombineering was performed as described in section 2.3 using well-described methods utilizing the pKD46 plasmid (Datsenko and Wanner, 2000). Instead of gene disruption, a specific set of knock-out DNA fragments was used to only replace the native essential folP-glmM operon promoter and folP RBS. This set of knockout DNA fragments contained a kanamycin resistance cassette and the pSAL promoter, as illustrated in the cartoon in FIG. 8, as well as a redundant nucleotide (“N”, wherein “N” is any of A, T , G or C) in the RBS for folP-glmM to generate a four-membered library of folP translational strengths. This library allows selection of a translational strength for folP that suits the transcriptional regulation by the biosensor. Finally, candidate recombineered cells were selected for by plating on LB agar plates supplemented with 5 mM salicylic acid and spectinomycin for maintenance of pBANspec; and kanamycin for selection of inserted knockout fragment. […]
(§1) A selected addicted strain (e3.18#1) and the non-addicted control E. coli strain (e3.18CON) were then tested for salicylic acid dependent growth by cultivation in a microtiter plate reader in liquid 2xYT medium supplemented with spectinomycin and kanamycin and presence/absence of salicylic acid (0 or 5 mM). […]

E. coli strain e3.18#1 = assay: Salicylic acid-dependent growth of addicted strain; conditions: 5 mM salicylic acid
Excerpt: (§2) The native single genomic copy of the essential gene operon folP-glmM in the E. coli XL1 host strain was modified to allow its transcriptional control by the salicylic acid-responsive promoter pSAL [SEQ ID No:118]. First, a gene encoding a salicylic acid biosensor (Pseudomonas putida nahR_Asn169 (Cebolla et al., 1997)) was introduced into the XL1 host strain on the plasmid pBANspec (Table 10). Then, replacement of the native folP-glmM promoter by the pSAL promoter was engineered by means of lambda red-mediated recombineering.
Recombineering was performed as described in section 2.3 using well-described methods utilizing the pKD46 plasmid (Datsenko and Wanner, 2000). Instead of gene disruption, a specific set of knock-out DNA fragments was used to only replace the native essential folP-glmM operon promoter and folP RBS. […]
as §1

E. coli strain e3.16#5 = assay: Triacetic acid lactone-dependent growth of addicted strain
Excerpt: The native single genomic copy of the essential gene operon folP-glmM in the E. coli XL1 host strain was modified to allow its transcriptional control by the triacetic acid lactone-responsive promoter pBAD. First, a gene encoding a triacetic acid lactone biosensor (AraCtal (Tang et al., 2013)) was introduced into the XL1 host strain on the plasmid pBALspec (Table 8). Then, replacement of the native folP-glmM promoter in this host strain by the pBAD promoter was engineered by means of lambda red-mediated recombineering. Recombineering was performed using well-described methods utilizing the pKD46 plasmid (Datsenko and Wanner, 2000), but instead of gene disruption, a specific set of knock-out DNA fragments (produced by PCR) was used to only replace the native essential folP-glmM operon promoter and folP ribosomal binding site (RBS). This set of knockout DNA fragments each contained a kanamycin resistance cassette and the pBAD promoter, as illustrated in the cartoon in FIG. 8. The nucleotide sequence of the set of gene knockout DNA fragments differed only with respect to the redundant nucleotide (“N”, wherein “N” is any of A, T, G or C) in the RBS sequence (ACTTGC) for folP-glmM, which generated a four-membered library of folP translational strengths.
For recombineering, as performed in standard pKD46 protocols, the target strain was first transformed with pKD46, and a single colony of this strain was then cultured in a 25 mL 2xYT culture at 30 degrees C. and 250 rpm horizontal shaking. When the culture reached OD600=0.1, the lambda Red system of pKD46 was induced by addition of 0.2 vol % L-arabinose, and then further cultured to grow to OD600=0.4. […]
The non-addicted control E. coli strain (e3.16CON), and a selected addicted strain (e3.16#5) were then tested and compared for triacetic acid lactone-dependent growth by cultivation in a microtiter plate reader in liquid 2xYT medium supplemented with spectinomycin and kanamycin and a three-step gradient of triacetic acid lactone (0, 2 and 20 mM). […]

[2] = system: E. coli control strain e3.16CON; assay: Toxicity of triacetic acid lactone to non-addicted control strain, growth in microtiter plate
Experimental: A non-addicted control E. coli strain (e3.16CON), also equipped with spectinomycin and kanamycin resistance genes, but with wildtype control of folP-glmM expression (Table 9), was constructed in order to test the toxicity of triacetic acid lactone.
The non-addicted control E. coli strain (e3.16CON), and a selected addicted strain (e3.16#5) were then tested and compared for triacetic acid lactone-dependent growth by cultivation in a microtiter plate reader in liquid 2xYT medium supplemented with spectinomycin and kanamycin and a three-step gradient of triacetic acid lactone (0, 2 and 20 mM). […] The observed growth depression was greatest at a concentration of 20 mM triacetic acid lactone.

[3] = system: E. coli control strain e3.22CON; assay: Toxicity of benzoic acid to non-addicted control strain, growth in microtiter plate; conditions: 2xYT, 5 mM benzoic acid, 37 deg. C.
Experimental: A non-addicted control E. coli strain (e3.22CON), also equipped with spectinomycin and kanamycin resistance genes, but wild-type control of folP-glmM expression (Table 13), was constructed in order to test the toxicity of benzoic acid.
A selected addicted strain (e3.22#4) and the non-addicted control E. coli strain (e3.18CON) were then tested for benzoic acid dependent growth by cultivation in a microtiter plate reader in liquid 2xYT medium supplemented with spectinomycin and kanamycin and w/wo salicylic acid (0 or 5 mM). […] In contrast to the control strain, the growth rate and final biomass yield of the addicted strain e3.18#1 was enhanced by supplementation with benzoic acid with a growth rate higher than otherwise expected for non-addicted strains (FIG. 16).

E. coli strain e3.22#4 = assay: Benzoic acid-dependent growth of addicted strain; conditions: 5 mM benzoic acid
Excerpt: as §2, with “benzoic” for “salicylic”, “nahR) (Table 12)” for “nahR_Asn169 (Cebolla et al., 1997))”, “pBABspec.” for “pBANspec (Table 10).”
Recombineering was performed as described in section 2.3 using well-described methods utilizing the pKD46 plasmid (Datsenko and Wanner, 2000)). Instead of gene disruption, a specific set of knock-out DNA fragments was used to only replace the native essential folP-glmM operon promoter and folP RBS. This set of knockout DNA fragments contained a kanamycin resistance cassette and the pSAL promoter, as illustrated in the cartoon in FIG. 8, as well as a redundant nucleotide (“N”, wherein “N” is any of A, T , G or C) in the RBS for folP-glmM to generate a four-membered library of folP translational strengths. […]
A selected addicted strain (e3.22#4) and the non-addicted control E. coli strain (e3.18CON) were then tested for benzoic acid dependent growth by cultivation in a microtiter plate reader in liquid 2xYT medium supplemented with spectinomycin and kanamycin and w/wo salicylic acid (0 or 5 mM). […]

[4] = system: E. coli XL-1 with pBAD-TA5; assay: L-arabinose-addiction yefM-yoeB TA system, cell growth (OD600)
Experimental: The yefM-yoeB TA pair was cloned into a plasmid (pBAD-TA5: araC, pBAD-yefM, pLac-yoeB, ampR) (Table 1) employing standard PCR cloning protocols (known in the art) and the plasmid was transformed into the host stain E. coli XL-1 with the genotype: recA1endA1 gyrA96 thi-1 hsdR17 supE44 relA1 lac[F′proAB lacIqZM15 Tn10 (TetR)]. Electroporation recovery of transformed cells was carried out in SOC medium (2% tryptone, 0.5% yeast extract, 10 mM NaCl, 2.5 mM KCl, 10 mM MgCl2, 10 mM MgSO4, and 20 mM glucose).
Transformed E. coli cultures were grown in 2xYT medium (10 g/L yeast extract, 16 g/L tryptone, 5 g/L NaCl). Antibiotics were added to select for maintenance of plasmids in strains transformed with these, according to their respective antibiotic resistance gene. Antibiotic concentrations when added were as follows: ampicillin 100 μg/mL, chloramphenicol 30 μg/mL, spectinomycin 50 μg/mL, kanamycin 50 μg/mL.
The expression of the yoeB gene in the yefM-yoeB TA pair construct (FIG. 2) was placed under the control of the Lac promoter, which is inducible by isopropyl β-D-1-thiogalactopyranoside (IPTG). Exposure of the cells to increasing concentrations of IPTG induced sufficient expression of the YoeB toxin to prevent growth, when the cells were grown in the absence of any source of L-arabinose (FIG. 3A). […]

[5] = system: E. coli XL1 with folP/glmM driven by pBAD promoter; assay: L-arabinose-addiction regulated essential gene operon folP/glmM, cell growth (OD600); conditions: 37° C.
[6] = system: E. coli XL1 with pBAT-TA5; assay: TPP-responsive riboswitch-regulated TA system, cell growth (OD600); conditions: presence of inducer TPP (500 μM added to the growth medium)
Excerpt: A TPP-responsive riboswitch (ThiMN15 #19) was engineered into the previously constructed L-arabinose-responsive TA-based correction system (pBAD-TA5 to yield pBAT-TA5). This TPP riboswitch functions as an “ON-type” when in the presence of its ligand TPP, and it is functional at the level of translation. The riboswitch was inserted into the DNA region of the pBAD-TA5 gene construct that encodes the 5′ untranslated region (UTR) of the antitoxin mRNA sequence (FIG. 17). For optimal functionality of the riboswitch, a protein-encoding sequence tet was also added as N-terminal fusion to YefM as it originated from the screen where ThiMN15#19 had been identified. An alternative TPP-responsive riboswitch was constructed, where an “OFF-type” riboswitch was inserted into the DNA region of the pBAD-TA5 gene construct that encodes the 5′-UTR of the toxin-encoding sequence to yield the same ligand-responsive growth.
An alternative TPP responsive-riboswitch-regulated TA correction system was engineered with a constitutive promoter driving expression of the riboswitch-yefM mRNA. From a selection of constitutive promoters (SEQ ID Nos.: 47-65, 89) of different strengths, the pBAD promoter of pBAT-TA5 was replaced and the resulting plasmids transformed into E. coli XL1. […]

[7] = system: E. coli with mevalonate biosensor TA plasmid (pBAM-TA5); conditions: 37 mM mevalonate added; no IPTG

For `O=C(O)c1ccccc1O` [salicylic acid], which “effect on growth of control strain” value [1] is on record?
Its value is “relative reduction in growth rate and final biomass yield”.

And the “growth rate of addicted strain” value (E. coli strain e3.18#1)?
Its value is “not reduced”.

Which “final cell yield of addicted strain” value (E. coli strain e3.16#5; 2 mM triacetic acid lactone) does the source give for `Cc1cc(O)cc(=O)o1` [triacetic acid lactone] here?
The value was “increased”.

What about the “growth rate of addicted strain” value (E. coli strain e3.16#5; 2 mM triacetic acid lactone) of the same compound?
Its value is “enhanced”.

And the “final cell yield of addicted strain” value (E. coli strain e3.16#5; 20 mM triacetic acid lactone)?
The value was “increased”.

What about the “effect on growth of control strain” value ([2]; 2xYT, 0, 2 and 20 mM triacetic acid lactone, 37 deg. C.) of the same compound?
Its value is “relative reduction in growth rate”.

And the “concentration at which observed growth depression was greatest” value ([2]; gradient 0, 2 and 20 mM)?
Its value is 20000 µM.

For `O=C(O)c1ccccc1` [benzoic acid], which “effect on growth of control strain” value [3] is on record?
The value was “relative reduction in growth rate and final biomass yield”.

And the “growth rate and final biomass yield of addicted strain” value (E. coli strain e3.22#4)?
The value was “enhanced”.

Which results are given for `O=C[C@H](O)[C@@H](O)[C@@H](O)CO` [L-arabinose]?
L-arabinose concentration sufficient to restore wild-type growth ([4]; co-addition with IPTG at concentrations up to 0.5 mM): 0.1%; cell growth ([5]; 2xYT supplemented with 0.0025% L-arabinose, 12-hour time course): completely failed to grow; cell growth ([5]; 2xYT supplemented with 0.25% L-arabinose): exponential

How did the effect on growth [6] turn out when `Cc1ncc(C[n+]2csc(CCO[P@](=O)(O)OP(=O)(O)O)c2C)c(N)n1` [TPP, thiamine pyrophosphate] was run?
Its effect on growth is “enhanced growth”.

For `CC(O)(CCO)CC(=O)O` (stereo not drawn) [mevalonate], which “effect on cell growth compared to cultures devoid of mevalonate” value [7] is on record?
Its value is “increase in cell growth”.

How did the “IPTG (toxin inducer) concentration at which cell growth was strongly inhibited” value ([4]; no L-arabinose, yoeB toxin under pLac) turn out when `CC(C)S[C@@H]1O[C@H](CO)[C@H](O)[C@H](O)[C@H]1O` [IPTG, isopropyl β-D-1-thiogalactopyranoside] was run?
The value was at least 0.1 mM.
